Measured values: patent US5840684A, “Glycopeptide antibiotic derivatives” (Eli Lilly and Company, priority 1995, dated 1998)
≈ marks a conversion by molar mass, not a printed value.

Tests used:
[1] = tested on: Staphylococcus aureus SA1199B; format: cell-based
Protocol: (§1) The MIC's were determined using a standard broth micro-dilution assay.

[2] = tested on: Entercoccus faecium 180-1; assay: broth micro-dilution MIC; format: cell-based
Protocol: as §1

Entercoccus faecium 276 = assay: broth micro-dilution MIC; format: cell-based
Protocol: as §1

[3] = tested on: Staphylococcus aureus 446; assay: broth micro-dilution MIC; format: cell-based
Protocol: as §1

[4] = tested on: Staphylococcus aureus 447; assay: broth micro-dilution MIC; format: cell-based
Protocol: as §1

[5] = tested on: Staphylococcus aureus 491; assay: broth micro-dilution MIC; format: cell-based
Protocol: as §1

[6] = tested on: Staphylococcus aureus SA1199A; assay: broth micro-dilution MIC; format: cell-based
Protocol: as §1

[7] = tested on: Staphylococcus aureus SA1199; assay: broth micro-dilution MIC; format: cell-based
Protocol: as §1

[8] = tested on: Staphylococcus aureus X778; assay: broth micro-dilution MIC; format: cell-based
Protocol: as §1

[9] = tested on: Streptococcus pyogenes C203; assay: broth micro-dilution MIC; format: cell-based
Protocol: as §1

Entercoccus faecium 180 = assay: broth micro-dilution MIC; format: cell-based; conditions: Entercoccus faecium 180
Protocol: (§2) The formula I compounds have in vitro and in vivo activity against Gram-positive pathogenic bacteria. The MIC's were determined using a standard broth micro-dilution assay.

Entercoccus faecium 2041 = assay: broth micro-dilution MIC; format: cell-based; conditions: Entercoccus faecium 2041
Protocol: as §2

[10] = tested on: Enterococcus gallinarum 245; assay: broth micro-dilution MIC; format: cell-based; conditions: Enterococcus gallinarum 245
Protocol: as §2

[11] = tested on: Haemophilus influenzae RD; assay: broth micro-dilution MIC; format: cell-based; conditions: Haemophilus influenzae RD
Protocol: as §2

[12] = tested on: Staphylococcus epidermidis 270; assay: broth micro-dilution MIC; format: cell-based
Protocol: as §2

[13] = tested on: Staphylococcus haemolyticus 105; assay: broth micro-dilution MIC; format: cell-based
Protocol: as §2

[14] = tested on: Staphylococcus haemolyticus 415; assay: broth micro-dilution MIC; format: cell-based
Protocol: as §2

[15] = tested on: Streptococcus pneumoniae P1; assay: broth micro-dilution MIC; format: cell-based
Protocol: as §2

[16] = tested on: vancomycin-resistant enterococci; assay: broth micro-dilution, mean geometric MIC; format: cell-based, Enterococcus faecium and Enterococcus faecalis; conditions: enterococci, 24-hour incubation
[17] = tested on: vancomycin-susceptible enterococci; assay: broth micro-dilution, mean geometric MIC; format: cell-based, Enterococcus faecium and Enterococcus faecalis; conditions: enterococci, 24-hour incubation
[18] = tested on: Staphylococcus aureus S13E; format: cell-based
Protocol: as §1

[19] = tested on: Staphylococcus aureus 489; assay: broth micro-dilution MIC; format: cell-based
Protocol: as §1

[20] = tested on: Staphylococcus aureus X400; assay: broth micro-dilution MIC; format: cell-based
Protocol: as §1

SMILES	MIC [1] [µg/mL]	MIC [2] [µg/mL]	MIC [3] [µg/mL]	MIC [4] [µg/mL]	MIC [5] [µg/mL]	MIC [6] [µg/mL]	MIC [7] [µg/mL]	MIC [9] [µg/mL]	MIC (Entercoccus faecium 180) [µg/mL]	MIC (Entercoccus faecium 2041) [µg/mL]	MIC [10] [µg/mL]	MIC [11] [µg/mL]	MIC [12] [µg/mL]	MIC [13] [µg/mL]	MIC [14] [µg/mL]	MIC [15] [µg/mL]	mean geometric MIC, Vancomycin Resistant Strains [16] [µg/mL]	mean geometric MIC, Vancomycin Sensitive Strains [17] [µg/mL]	MIC [18] [µg/mL]	MIC [19] [µg/mL]	other results
CNC(CC(C)C)C(=O)NC1C(=O)NC(CC(N)=O)C(=O)NC2C(=O)NC3C(=O)NC(C(=O)NC(C(=O)O)c4cc(O)cc(O)c4-c4cc3ccc4O)C(OC3CC(C)(N)C(O)C(C)O3)c3ccc(c(Cl)c3)Oc3cc2cc(c3OC2OC(CO)C(O)C(O)C2OC2CC(C)(NCCCc3ccc(OC)cc3)C(O)C(C)O2)Oc2ccc(cc2Cl)C1O (stereo not shown) [Compound 175]	≤ 0.06	≤ 0.06	1 (≈ 0.574 µM)	1 (≈ 0.574 µM)	0.5 (≈ 0.287 µM)	0.5 (≈ 0.287 µM)	≤ 0.06	0.5 (≈ 0.287 µM)	1 (≈ 0.574 µM)	≤ 0.06	4 (≈ 2.3 µM)	16 (≈ 9.19 µM)	0.5 (≈ 0.287 µM)	2 (≈ 1.15 µM)	4 (≈ 2.3 µM)	0.5 (≈ 0.287 µM)	9.5	0.22			MIC (Entercoccus faecium 276): ≤ 0.06 µg/mL; MIC [8]: 0.5 µg/mL (≈ 0.287 µM)
CNC(CC(C)C)C(=O)NC1C(=O)NC(CC(N)=O)C(=O)NC2C(=O)NC3C(=O)NC(C(=O)NC(C(=O)O)c4cc(O)cc(O)c4-c4cc3ccc4O)C(OC3CC(C)(N)C(O)C(C)O3)c3ccc(c(Cl)c3)Oc3cc2cc(c3OC2OC(CO)C(O)C(O)C2OC2CC(C)(NCc3ccc4cc(C)ccc4c3)C(O)C(C)O2)Oc2ccc(cc2Cl)C1O (stereo not shown) [Compound 189]	1 (≈ 0.573 µM)	≤ 0.06	0.5 (≈ 0.286 µM)	0.5 (≈ 0.286 µM)	≤ 0.06	≤ 0.06	0.5 (≈ 0.286 µM)	≤ 0.06		≤ 0.06	1 (≈ 0.573 µM)	32 (≈ 18.3 µM)		1 (≈ 0.573 µM)	1 (≈ 0.573 µM)	≤ 0.06	2.4	0.10	0.5 (≈ 0.286 µM)	1 (≈ 0.573 µM)	
CNC(CC(C)C)C(=O)NC1C(=O)NC(CC(N)=O)C(=O)NC2C(=O)NC3C(=O)NC(C(=O)NC(C(=O)O)c4cc(O)cc(O)c4-c4cc3ccc4O)C(OC3CC(C)(N)C(O)C(C)O3)c3ccc(c(Cl)c3)Oc3cc2cc(c3OC2OC(CO)C(O)C(O)C2OC2CC(C)(NCc3ccc(I)s3)C(O)C(C)O2)Oc2ccc(cc2Cl)C1O (stereo not shown) [Compound 74]	1 (≈ 0.551 µM)	≤ 0.06	4 (≈ 2.2 µM)	1 (≈ 0.551 µM)		≤ 0.06	≤ 0.06	≤ 0.06	0.5 (≈ 0.276 µM)	≤ 0.06	≤ 0.06	0.5 (≈ 0.276 µM)	0.5 (≈ 0.276 µM)	4 (≈ 2.2 µM)	4 (≈ 2.2 µM)	≤ 0.06	11		0	≤ 0.06	MIC [20]: ≤ 0.06 µg/mL; MIC [8]: ≤ 0.06 µg/mL
CNC(CC(C)C)C(=O)NC1C(=O)NC(CC(N)=O)C(=O)NC2C(=O)NC3C(=O)NC(C(=O)NC(C(=O)O)c4cc(O)cc(O)c4-c4cc3ccc4O)C(OC3CC(C)(N)C(O)C(C)O3)c3ccc(c(Cl)c3)Oc3cc2cc(c3OC2OC(CO)C(O)C(O)C2OC2CC(C)(NCCCC3CCCC3)C(O)C(C)O2)Oc2ccc(cc2Cl)C1O (stereo not shown) [Compound 208]	0.5 (≈ 0.294 µM)	≤ 0.06	1 (≈ 0.587 µM)	1 (≈ 0.587 µM)	0.5 (≈ 0.294 µM)	≤ 0.06	0.5 (≈ 0.294 µM)	≤ 0.06		≤ 0.06	2 (≈ 1.17 µM)	32 (≈ 18.8 µM)	0.5 (≈ 0.294 µM)		2 (≈ 1.17 µM)	≤ 0.06	2.8	0.17		0.5 (≈ 0.294 µM)	
CNC(CC(C)C)C(=O)NC1C(=O)NC(CC(N)=O)C(=O)NC2C(=O)NC3C(=O)NC(C(=O)NC(C(=O)O)c4cc(O)cc(O)c4-c4cc3ccc4O)C(OC3CC(C)(N)C(O)C(C)O3)c3ccc(c(Cl)c3)Oc3cc2cc(c3OC2OC(CO)C(O)C(O)C2OC2CC(C)(NCc3cc4ccccc4s3)C(O)C(C)O2)Oc2ccc(cc2Cl)C1O (stereo not shown) [Compound 19]	1 (≈ 0.575 µM)	≤ 0.06	0.5 (≈ 0.288 µM)	1 (≈ 0.575 µM)	2 (≈ 1.15 µM)	≤ 0.06	0.5 (≈ 0.288 µM)	≤ 0.06	1 (≈ 0.575 µM)	≤ 0.06	≤ 0.06	32 (≈ 18.4 µM)	2 (≈ 1.15 µM)	4 (≈ 2.3 µM)	8 (≈ 4.6 µM)	≤ 0.06		0.22	≤ 0.06		MIC (Entercoccus faecium 276): ≤ 0.06 µg/mL
CNC(CC(C)C)C(=O)NC1C(=O)NC(CC(N)=O)C(=O)NC2C(=O)NC3C(=O)NC(C(=O)NC(C(=O)O)c4cc(O)cc(O)c4-c4cc3ccc4O)C(OC3CC(C)(N)C(O)C(C)O3)c3ccc(c(Cl)c3)Oc3cc2cc(c3OC2OC(CO)C(O)C(O)C2OC2CC(C)(NCCCCC#Cc3ccccc3)C(O)C(C)O2)Oc2ccc(cc2Cl)C1O (stereo not shown) [Compound 235]	0.5 (≈ 0.286 µM)	≤ 0.06	0.5 (≈ 0.286 µM)		0.125 (≈ 0.0715 µM)	≤ 0.06		≤ 0.06	0.5 (≈ 0.286 µM)	≤ 0.06	1 (≈ 0.572 µM)	8 (≈ 4.57 µM)	0.5 (≈ 0.286 µM)	0.5 (≈ 0.286 µM)	1 (≈ 0.572 µM)	≤ 0.06	2.4		0.125 (≈ 0.0715 µM)	0.5 (≈ 0.286 µM)	MIC (Entercoccus faecium 276): 0.125 µg/mL (≈ 0.0715 µM); MIC [20]: 0.125 µg/mL (≈ 0.0715 µM); MIC [8]: 0.5 µg/mL (≈ 0.286 µM)
CNC(CC(C)C)C(=O)NC1C(=O)NC(CC(N)=O)C(=O)NC2C(=O)NC3C(=O)NC(C(=O)NC(C(=O)O)c4cc(O)cc(O)c4-c4cc3ccc4O)C(OC3CC(C)(N)C(O)C(C)O3)c3ccc(c(Cl)c3)Oc3cc2cc(c3OC2OC(CO)C(O)C(O)C2OC2CC(C)(NCc3ccc(C#Cc4ccccc4)cc3)C(O)C(C)O2)Oc2ccc(cc2Cl)C1O (stereo not shown) [Compound 79]	1 (≈ 0.561 µM)	≤ 0.06	2 (≈ 1.12 µM)	2 (≈ 1.12 µM)	4 (≈ 2.24 µM)		1 (≈ 0.561 µM)	≤ 0.06	≤ 0.06	≤ 0.06	≤ 0.06	16 (≈ 8.98 µM)	0.5 (≈ 0.28 µM)	4 (≈ 2.24 µM)	4 (≈ 2.24 µM)	≤ 0.06	0.84	0.042	4 (≈ 2.24 µM)	2 (≈ 1.12 µM)	MIC (Entercoccus faecium 276): ≤ 0.06 µg/mL; MIC [8]: 2 µg/mL (≈ 1.12 µM)
CNC(CC(C)C)C(=O)NC1C(=O)NC(CC(N)=O)C(=O)NC2C(=O)NC3C(=O)NC(C(=O)NC(C(=O)O)c4cc(O)cc(O)c4-c4cc3ccc4O)C(OC3CC(C)(N)C(O)C(C)O3)c3ccc(c(Cl)c3)Oc3cc2cc(c3OC2OC(CO)C(O)C(O)C2OC2CC(C)(NCc3ccc(OCCOCCCl)cc3)C(O)C(C)O2)Oc2ccc(cc2Cl)C1O (stereo not shown) [Compound 75]	0.5 (≈ 0.277 µM)	≤ 0.06	2 (≈ 1.11 µM)	1 (≈ 0.554 µM)		≤ 0.06	2 (≈ 1.11 µM)	≤ 0.06	0.5 (≈ 0.277 µM)	≤ 0.06	4 (≈ 2.22 µM)	2 (≈ 1.11 µM)	0.5 (≈ 0.277 µM)	2 (≈ 1.11 µM)	4 (≈ 2.22 µM)	≤ 0.06	16	0.50	0	≤ 0.06	MIC (Entercoccus faecium 276): ≤ 0.06 µg/mL; MIC [20]: ≤ 0.06 µg/mL; MIC [8]: ≤ 0.06 µg/mL
